According to patent publication US12612386B2, “Heteroaryl-triazole compounds as pesticides” (Bayer Aktiengesellschaft, priority 2020, dated 2026):

Tests used:
Type in all cases: in vivo
[1] = system: green peach aphid (Myzus persicae); assay: Myzus persicae spray test (MYZUPE); details: 120 h; for mortality at 100 g/ha: after 5 days; for Emax at 20 g/ha: 20 g ai/ha; for Emax at 100 g/ha: 100 g ai/ha
Description: Myzus persicae—Spray Test
• Solvent: 78.0 parts by weight acetone • 1.5 parts by weight dimethylformamide • Emulsifier: alkylarylpoly glycol ether
(§1) To produce a suitable preparation of active compound, 1 part by weight of active compound is mixed with the stated amount of solvents and is diluted with water, containing an emulsifier concentration of 1000 ppm, to the desired concentration. Further test concentrations are prepared by dilution with emulsifier containing water.
Chinese cabbage (Brassica pekinensis) leaf disks infected with all instars of the green peach aphid (Myzus persicae), are sprayed with a preparation of the active ingredient of the desired concentration.
After 5 days mortality in % is determined. 100% means all aphids have been killed and 0% means none of the aphids have been killed.
Myzus persicae—Spray Test (MYZUPE)
(§2) • Solvent: 78.0 parts by weight acetone • 1.5 parts by weight dimethylformamide • Emulsifier: alkylarylpolyglycol ether
After the specified period of time, mortality in % is determined. 100% means all aphids have been killed and 0% means none of the aphids have been killed.

[2] = system: fall armyworm larvae (Spodoptera frugiperda); assay: whole plant or invertebrate; details: 168 h; for Emax at 20 g/ha / Emax at 100 g/ha: SPODFR, 7 dat (Table 4), read-out: % Efficacy; for Emax at 20 g/ha: 20 g ai/ha; for Emax at 100 g/ha: 100 g ai/ha
Description: Spodoptera frugiperda—Spray Test
as §2, §1
Maize (Zea mays) leaf sections are sprayed with a preparation of the active ingredient of the desired concentration. Once dry, the leaf sections are infested with fall armyworm larvae (Spodoptera frugiperda).
After 7 days mortality in % is determined. 100% means all caterpillars have been killed and 0% means none of the caterpillars have been killed.
Spodoptera frugiperda—Spray Test (SPODFR)
After the specified period of time, mortality in % is determined. 100% means all caterpillars have been killed and 0% means none of the caterpillars have been killed.

[3] = system: larvae of the banded cucumber beetle (Diabrotica balteata); assay: Diabrotica balteata spray test; details: 168 h, 100 g/ha (=32 μg/well), after 7 days, read-out: efficacy (seedling growth)
Description: Diabrotica balteata—Spray Test
(§3) • Solvent: 78.0 parts by weight of acetone • 1.5 parts by weight of dimethylformamide • Emulsifier: alkylarylpolyglycol ether
as §1, with “solvent,” for “solvents”, “and the concentrate” for “and”
Soaked wheat seeds (Triticum aestivum) are placed in a multiple well plate filled with agar and some water and are incubated for 1 day to germinate (5 seeds per well). The germinated wheat seeds are sprayed with a test solution containing the desired concentration of the active ingredient. Afterwards each unit is infected with 10-20 larvae of the banded cucumber beetle (Diabrotica balteata).
After 7 days efficacy in % is determined. 100% means all the seedlings have grown up like in the untreated, uninfected control; 0% means none of the seedlings have grown.

[4] = system: larvae of the southern green stink bug (Nezara viridula); assay: whole plant or invertebrate; details: 96 h
Description: Nezara viridula—Spray Test
as §3
as §1, with “solvent,” for “solvents”, “and the concentrate” for “and”
Barley plants (Hordeum vulgare) are sprayed with a test solution containing the desired concentration of the active ingredient and are infested with larvae of the southern green stink bug (Nezara viridula).
After 4 days mortality in % is determined. 100% means all the stink bugs have been killed; 0% means none of the stink bugs have been killed.

[5] = MYZUPE, 5 dat (Table 4), read-out: % Efficacy

Cc1nc([C@H](C)NC(=O)c2cc(Br)cc(Br)c2)n(-c2cc(C(N)=O)ncn2)n1 [I-71]
mortality at 100 g/ha [1]: 90%
mortality at 100 g/ha [2]: 100%
pest or weed control at 32 µg/disc, 100 g/ha [3]: 100%
mortality at 500 g/ha [4]: 90%

CNC(=O)c1cc(-n2nc(C)nc2[C@H](C)NC(=O)c2cc(OC(F)F)cc(OC(F)F)c2)ncn1 [I-99]
mortality at 100 g/ha [1]: 90%
mortality at 100 g/ha [2]: 100%
pest or weed control at 32 µg/disc, 100 g/ha [3]: 100%
mortality at 500 g/ha [4]: 100%

C[C@H](NC(=O)c1cc(Br)cc(C#N)c1)c1ncnn1-c1cc(C(N)=O)ncn1 [I-124]
mortality at 100 g/ha [1]: 90%
mortality at 100 g/ha [2]: 100%
pest or weed control at 32 µg/disc, 100 g/ha [3]: 100%
mortality at 100 g/ha [4]: 100%
mortality at 500 g/ha [4]: 100%

C[C@H](NC(=O)c1cc(Cl)cc(S(=O)(=O)C(F)(F)F)c1)c1ncnn1-c1cc(C(N)=O)ncn1 [I-84]
mortality at 100 g/ha [1]: 90%
Emax at 4 g/ha ([1]; MYZUPE, 4 g ai/ha, 5 dat (Table 4), read-out: % Efficacy): 90%
Emax at 20 g/ha [1, 5]: 100%
Emax at 100 g/ha [1, 5]: 90%
mortality at 100 g/ha [2]: 100%
Emax at 20 g/ha [2]: 100%
Emax at 100 g/ha [2]: 100%
pest or weed control at 32 µg/disc, 100 g/ha [3]: 100%
mortality at 500 g/ha [4]: 100%

C[C@H](NC(=O)c1cc(OC(F)(F)F)cc(C2CC2)c1)c1nc(C2CC2)nn1-c1cc(C(=O)N(C)C)ncn1 [I-159]
mortality at 100 g/ha [1]: 90%
mortality at 100 g/ha [2]: 100%
pest or weed control at 32 µg/disc, 100 g/ha [3]: 100%

CNC(=O)c1cc(-n2nc(C)nc2[C@H](C)NC(=O)c2cc(Br)cc(OC(F)F)c2)ncn1 [I-88]
mortality at 100 g/ha [1]: 100%
mortality at 100 g/ha [2]: 100%
pest or weed control at 32 µg/disc, 100 g/ha [3]: 100%
mortality at 500 g/ha [4]: 100%

CC(C)NC(=O)c1cc(-n2ncnc2[C@H](C)NC(=O)c2cc(OC(F)(F)F)cc(C3(C#N)CC3)c2)ncn1 [I-163]
mortality at 100 g/ha [1]: 100%
mortality at 100 g/ha [2]: 100%
pest or weed control at 32 µg/disc, 100 g/ha [3]: 100%

CNC(=O)c1cc(-n2ncnc2[C@H](C)NC(=O)c2cccc(OC(F)(F)F)c2)ncn1 [I-110]
mortality at 100 g/ha [1]: 90%
mortality at 100 g/ha [2]: 100%
pest or weed control at 32 µg/disc, 100 g/ha [3]: 100%
mortality at 500 g/ha [4]: 100%

C[C@H](NC(=O)c1cc(OC(F)(F)F)cc(S(=O)(=O)C(F)F)c1)c1nc(C2CC2)nn1-c1cc(C(=O)N(C)C)ncn1 [I-156]
mortality at 100 g/ha [1]: 90%
mortality at 100 g/ha [2]: 100%
pest or weed control at 32 µg/disc, 100 g/ha [3]: 100%

C[C@H](NC(=O)c1cc(Br)cc(S(C)(=O)=O)c1)c1nc(C2CC2)nn1-c1cc(C(N)=O)ncn1 [I-143]
mortality at 100 g/ha [1]: 100%
mortality at 100 g/ha [2]: 100%
mortality at 500 g/ha [4]: 100%

C[C@H](NC(=O)c1cc(OC(F)(F)F)cc(S(=O)(=O)C(F)(F)F)c1)c1ncnn1-c1cc(C(N)=O)ncn1 [I-58]
mortality at 100 g/ha [1]: 90%
mortality at 100 g/ha [2]: 100%
pest or weed control at 32 µg/disc, 100 g/ha [3]: 100%
mortality at 500 g/ha [4]: 100%

Cc1nc([C@H](C)NC(=O)c2cc(Br)cc(OC(F)(F)F)c2)n(-c2cc(C(N)=O)ncn2)n1 [I-12]
mortality at 100 g/ha [1]: 90%
mortality at 100 g/ha [2]: 100%
pest or weed control at 32 µg/disc, 100 g/ha [3]: 100%
mortality at 500 g/ha [4]: 100%

C[C@H](NC(=O)c1cc(OC(F)(F)F)cc(S(=O)(=O)C(F)F)c1)c1ncnn1-c1cc(C(N)=O)ncn1 [I-45]
mortality at 100 g/ha [1]: 90%
mortality at 100 g/ha [2]: 100%
pest or weed control at 32 µg/disc, 100 g/ha [3]: 100%
mortality at 500 g/ha [4]: 100%

C[C@H](NC(=O)c1cc(OC(F)(F)F)cc(C2(C#N)CC2)c1)c1ncnn1-c1cc(C(=O)NC2CC2)ncn1 [I-169]
mortality at 100 g/ha [1]: 90%
mortality at 100 g/ha [2]: 100%
pest or weed control at 32 µg/disc, 100 g/ha [3]: 100%

C[C@H](NC(=O)c1cc(Br)cc(OC(F)(F)C(F)F)c1)c1ncnn1-c1cc(C(N)=O)ncn1 [I-112]
mortality at 100 g/ha [1]: 100%
mortality at 100 g/ha [2]: 100%
pest or weed control at 32 µg/disc, 100 g/ha [3]: 100%

C[C@H](NC(=O)c1cc(OC(F)F)cc(OC(F)F)c1)c1nc(C2CC2)nn1-c1cc(C(N)=O)ncn1 [I-152]
mortality at 100 g/ha [1]: 100%
mortality at 100 g/ha [2]: 100%
pest or weed control at 32 µg/disc, 100 g/ha [3]: 100%

C[C@H](NC(=O)c1cccc(I)c1)c1ncnn1-c1cc(C(N)=O)ncn1 [I-48]
mortality at 100 g/ha [1]: 90%
mortality at 100 g/ha [2]: 100%
pest or weed control at 32 µg/disc, 100 g/ha [3]: 100%
mortality at 500 g/ha [4]: 100%

C[C@H](NC(=O)c1cc(Cl)cc(S(C)(=O)=O)c1)c1nc(C2CC2)nn1-c1cc(C(=O)N(C)C)ncn1 [I-160]
mortality at 100 g/ha [1]: 100%
mortality at 100 g/ha [2]: 83%
pest or weed control at 32 µg/disc, 100 g/ha [3]: 100%

CC(C)N(C)C(=O)c1cc(-n2ncnc2[C@H](C)NC(=O)c2cc(OC(F)F)cc(OC(F)F)c2)ncn1 [I-97]
mortality at 100 g/ha [1]: 90%
mortality at 100 g/ha [2]: 100%

CC(C)N(C)C(=O)c1cc(-n2ncnc2[C@H](C)NC(=O)c2cc(Br)cc(OC(F)F)c2)ncn1 [I-103]
mortality at 100 g/ha [1]: 90%
mortality at 100 g/ha [2]: 100%
pest or weed control at 32 µg/disc, 100 g/ha [3]: 100%

C[C@H](NC(=O)c1cc(Cl)cc(OC(F)(F)F)c1)c1nc(C2CC2)nn1-c1cc(C(=O)N(C)C)ncn1 [I-166]
mortality at 100 g/ha [1]: 100%
mortality at 100 g/ha [2]: 100%
pest or weed control at 32 µg/disc, 100 g/ha [3]: 100%

C[C@H](NC(=O)c1cc(Cl)cc(S(C)(=O)=O)c1)c1nc(C2CC2)nn1-c1cc(C(N)=O)ncn1 [I-150]
mortality at 100 g/ha [1]: 90%
mortality at 100 g/ha [2]: 100%
mortality at 500 g/ha [4]: 100%

C[C@H](NC(=O)c1cc(Cl)cc(S(=O)(=O)C(F)F)c1)c1nc(C2CC2)nn1-c1cc(C(=O)N(C)C)ncn1 [I-161]
mortality at 100 g/ha [1]: 90%
mortality at 100 g/ha [2]: 100%
pest or weed control at 32 µg/disc, 100 g/ha [3]: 100%

C[C@H](NC(=O)c1cc(OC(F)(F)F)cc(C2(C#N)CC2)c1)c1nc(C2CC2)nn1-c1cc(C(=O)N(C)C)ncn1 [I-167]
mortality at 100 g/ha [1]: 100%
mortality at 100 g/ha [2]: 100%
pest or weed control at 32 µg/disc, 100 g/ha [3]: 80%

CCNC(=O)c1cc(-n2ncnc2[C@H](C)NC(=O)c2cc(OC(F)(F)F)cc(C3(C#N)CC3)c2)ncn1 [I-168]
mortality at 100 g/ha [1]: 100%
mortality at 100 g/ha [2]: 100%
pest or weed control at 32 µg/disc, 100 g/ha [3]: 100%

C[C@H](NC(=O)c1cc(Cl)cc(S(=O)(=O)C(F)(F)F)c1)c1ncnn1-c1cc(C#N)ccn1 [I-075 Known from WO 2019197468, reference compound]
Emax at 20 g/ha [1, 5]: 70%
Emax at 100 g/ha [1, 5]: 90%
Emax at 20 g/ha [2]: 33%
Emax at 100 g/ha [2]: 100%

C[C@H](NC(=O)c1cc(Cl)cc(OC(F)(F)C(F)F)c1)c1ncnn1-c1cc(C(N)=O)ncn1 [I-113, 6-(5-{(1S)-1-[3-chloro-5-(1,1,2,2-tetrafluoroethoxy)benzamido]ethyl}-1H-1,2,4-triazol-1-yl)pyrimidine-4-carboxamide]
mortality at 100 g/ha [1]: 90%
mortality at 100 g/ha [2]: 100%

C[C@H](NC(=O)c1cc(C(F)(F)F)cc(S(C)(=O)=O)c1)c1nc(C2CC2)nn1-c1cc(C(=O)N(C)C)ncn1 [I-164]
mortality at 100 g/ha [1]: 100%
pest or weed control at 32 µg/disc, 100 g/ha [3]: 80%

C[C@H](NC(=O)c1cc(I)cc(OC(F)F)c1)c1ncnn1-c1cc(C(N)=O)ncn1 [I-162]
mortality at 100 g/ha [1]: 90%
mortality at 100 g/ha [2]: 100%
pest or weed control at 32 µg/disc, 100 g/ha [3]: 100%
mortality at 500 g/ha [4]: 100%

C[C@H](NC(=O)c1cc(Cl)cc(S(=O)(=O)C(F)(F)F)c1)c1ncnn1-c1ccccn1 [I-068 Known from WO 2019197468, reference compound]
Emax at 20 g/ha [1, 5]: 0%
Emax at 100 g/ha [1, 5]: 0%

C[C@H](NC(=O)c1cc(Br)nc(Br)c1)c1ncnn1-c1cc(C(N)=O)ncn1 [I-148]
mortality at 100 g/ha [2]: 100%
pest or weed control at 32 µg/disc, 100 g/ha [3]: 100%
mortality at 500 g/ha [4]: 100%
